Where a SMILES comes first, the peptide text is derived from it. [ ]: non-standard residue; d: D form. pGlu = O=C1CC[C@@H](C(=O)O)N1
Test system: haemopoiesis
Assay: inhibitory effect on haemopoiesis in vivo
Settings: time at which the inhibitory effect occurs
Source text: By contrast it is also possible to prepare peptides having a metabolically labile blocking group so that slow release of the unblocked peptide can be achieved in vivo. Thus according to a further aspect of the invention we provide compounds of formula [drawing 10] wherein R^a, R^b, R^c, R^e, R^f and n are as defined for formula I, R^12 is a metabolically labile group, for example a 2-pyridylthio group, and all amino acids have the chiral form stated for formula (I).

NCCCC[C@H](NC(=O)[C@H](CS)NC(=O)[C@H](CC(=O)O)NC(=O)[C@H](CCC(=O)O)NC(=O)[C@@H]1CCC(=O)N1)C(=O)O [Example 1, L-PYROGLUTAMYL-L-GLUTAMYL-L-ASPARTYL-L-CYSTEINYL-L-LYSINE] ([pGlu]EDCK-OH)
inhibitory effect on haemopoiesis, occurring after: 1 days

— patent US5484770A, “Peptide compounds which inhibit the proliferation of epidermal or epithelial stem cells” (Hafslund Nycomed Bioreg AS, priority 1988, dated 1996)
